From ChEMBL document CHEMBL1130558, “Synthesis and preliminary structure-activity relationships of 1-[(3-fluoro-4-pyridinyl)amino]-3-methyl-1H-indol-5-yl methyl carbamate (P10358), a novel acetylcholinesterase inhibitor” (Bioorg Med Chem Lett, 1997)
The source made the active and inactive calls.

What was measured:
Acetylcholinesterase [1] = target: T1, Acetylcholinesterase (Rattus norvegicus, UniProt P37136); test: Compound was evaluated in vitro in rats for the inhibition of brain (striatal) acetylcholinesterase (AChEI) using acetylthiocholine as substrate; 0.0026-0.031
T1 sequence (P37136 whole entry): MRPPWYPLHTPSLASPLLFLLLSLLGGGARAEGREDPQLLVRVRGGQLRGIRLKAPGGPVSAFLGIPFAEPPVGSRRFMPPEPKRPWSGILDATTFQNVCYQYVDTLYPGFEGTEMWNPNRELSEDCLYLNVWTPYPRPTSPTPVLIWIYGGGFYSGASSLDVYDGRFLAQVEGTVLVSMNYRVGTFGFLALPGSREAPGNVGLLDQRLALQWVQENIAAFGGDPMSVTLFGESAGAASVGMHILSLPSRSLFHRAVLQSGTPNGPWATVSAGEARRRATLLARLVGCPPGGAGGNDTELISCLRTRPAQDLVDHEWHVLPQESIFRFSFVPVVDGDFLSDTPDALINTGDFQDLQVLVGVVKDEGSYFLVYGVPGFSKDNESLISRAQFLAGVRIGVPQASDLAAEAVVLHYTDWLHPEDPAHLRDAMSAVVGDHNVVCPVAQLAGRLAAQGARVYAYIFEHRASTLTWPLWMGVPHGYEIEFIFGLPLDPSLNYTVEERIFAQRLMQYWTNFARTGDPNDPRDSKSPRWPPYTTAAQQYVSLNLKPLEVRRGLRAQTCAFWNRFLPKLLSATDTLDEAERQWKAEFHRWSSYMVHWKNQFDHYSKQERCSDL

Mus musculus [2] = test: Compound evaluated in vivo for reversing the Scopolamine dementia dark avoidance (SDDA) in mice expressed number of active dosages versus the total number of dosages evaluated; 5/7 and active; format: functional, organism-based
Mus musculus [3] = test: The percent of animals in the scopolamine-drug group with latencies greater than the cutoff time at subcutaneous dose of 0.01 mg/kg; format: functional
[4] = target: T2, Acetylcholinesterase (Rattus norvegicus) (UniProt P37136); test: Compound was evaluated ex vivo for the inhibition of acetylcholinesterase (AChEI) one hour after oral administration
T2 sequence (whole entry): T1 sequence (P37136 whole entry)

Mus musculus [5] = test: The percent of animals in the scopolamine-drug group with latencies greater than the cutoff time at subcutaneous dose of 0.001 mg/kg; format: functional
Cholinesterase [6] = target: T3, Cholinesterase (Homo sapiens, UniProt P06276); test: In vitro inhibition of human serum Butyrylcholinesterase using butyrylthiocholine as substrate; 0.00029-0.001
T3 sequence (P06276 whole entry): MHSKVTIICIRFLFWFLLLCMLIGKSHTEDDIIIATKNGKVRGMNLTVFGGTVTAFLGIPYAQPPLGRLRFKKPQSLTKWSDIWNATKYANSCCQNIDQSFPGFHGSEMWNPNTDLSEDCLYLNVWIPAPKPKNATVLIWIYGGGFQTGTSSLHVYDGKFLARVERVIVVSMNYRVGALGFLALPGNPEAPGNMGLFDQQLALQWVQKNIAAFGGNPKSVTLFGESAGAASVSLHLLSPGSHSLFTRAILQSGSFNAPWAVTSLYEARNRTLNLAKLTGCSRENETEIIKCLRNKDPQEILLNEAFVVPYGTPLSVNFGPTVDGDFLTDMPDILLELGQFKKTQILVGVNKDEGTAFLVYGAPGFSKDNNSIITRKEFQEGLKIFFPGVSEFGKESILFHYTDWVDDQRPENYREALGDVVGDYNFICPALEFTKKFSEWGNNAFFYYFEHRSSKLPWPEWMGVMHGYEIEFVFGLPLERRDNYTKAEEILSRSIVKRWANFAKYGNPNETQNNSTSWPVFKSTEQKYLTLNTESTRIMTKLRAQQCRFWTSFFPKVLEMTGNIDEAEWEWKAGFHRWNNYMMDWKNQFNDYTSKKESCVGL

Mus musculus [7] = test: The percent of animals in the scopolamine-drug group with latencies greater than the cutoff time at subcutaneous dose of 1.0 mg/kg; format: functional
Mus musculus [8] = test: The percent of animals in the scopolamine-drug group with latencies greater than the cutoff time at subcutaneous dose of 0.1 mg/kg; format: functional
Mus musculus [9] = test: The percent of animals in the scopolamine-drug group with latencies greater than the cutoff time at subcutaneous dose of 0.003 mg/kg; format: functional
Acetylcholinesterase [10] = target: T1, Acetylcholinesterase; test: Compound was evaluated in vitro in rats for the inhibition of brain (striatal) acetylcholinesterase (AChEI) using acetylthiocholine as substrate; 21-88
Mus musculus [11] = test: The percent of animals in the scopolamine-drug group with latencies greater than the cutoff time at subcutaneous dose of 0.63 mg/kg; format: functional
[12] = target: T2, Acetylcholinesterase (Rattus norvegicus); test: Tested for percent ex vivo inhibition of rat striatal acetylcholinesterase at peroral dose of 20 mg/kg at 24 hr; format: organism-based; parameters: dose 20 mg/kg
Acetylcholinesterase [13] = target: T1, Acetylcholinesterase; test: Compound was evaluated in vitro in rats for the inhibition of brain (striatal) acetylcholinesterase (AChEI) using acetylthiocholine as substrate; 0.024-0.14
Mus musculus [14] = test: Compound was evaluated in vivo for the significant activity at all doses in reversing the Scopolamine dementia dark avoidance (SDDA) in mice; 1/6; format: functional
Cholinesterase [15] = target: T3, Cholinesterase; test: In vitro inhibition of human serum Butyrylcholinesterase using butyrylthiocholine as substrate; 0.023-0.041
[16] = target: T2, Acetylcholinesterase (Rattus norvegicus); test: Tested for percent ex vivo inhibition of rat striatal acetylcholinesterase at peroral dose of 20 mg/kg at 4 hr; format: organism-based; parameters: dose 20 mg/kg
[17] = target: T2, Acetylcholinesterase (Rattus norvegicus); test: Tested for percent ex vivo inhibition of rat striatal acetylcholinesterase at peroral dose of 20 mg/kg at 1 hr; format: organism-based; parameters: dose 20 mg/kg
Acetylcholinesterase [18] = target: T1, Acetylcholinesterase; test: Compound was evaluated in vitro in rats for the inhibition of brain (striatal) acetylcholinesterase (AChEI) using acetylthiocholine as substrate; 3.3-4.8
Mus musculus [19] = test: The percent of animals in the scopolamine-drug group with latencies greater than the cutoff time at subcutaneous dose of 3.0 mg/kg; format: functional
Mus musculus [20] = test: Compound was evaluated in vivo for the significant activity at all doses in reversing the Scopolamine dementia dark avoidance (SDDA) in mice; 2/3; format: functional
Cholinesterase [21] = target: T3, Cholinesterase; test: In vitro inhibition of human serum Butyrylcholinesterase using butyrylthiocholine as substrate; 0.69-1.2
[22] = target: T4, Muscarinic acetylcholine receptor M4 (Homo sapiens) (UniProt P08173); test: In vitro inhibition of muscarinic receptor stimulation; NI=No inhibition
T4 sequence (whole entry): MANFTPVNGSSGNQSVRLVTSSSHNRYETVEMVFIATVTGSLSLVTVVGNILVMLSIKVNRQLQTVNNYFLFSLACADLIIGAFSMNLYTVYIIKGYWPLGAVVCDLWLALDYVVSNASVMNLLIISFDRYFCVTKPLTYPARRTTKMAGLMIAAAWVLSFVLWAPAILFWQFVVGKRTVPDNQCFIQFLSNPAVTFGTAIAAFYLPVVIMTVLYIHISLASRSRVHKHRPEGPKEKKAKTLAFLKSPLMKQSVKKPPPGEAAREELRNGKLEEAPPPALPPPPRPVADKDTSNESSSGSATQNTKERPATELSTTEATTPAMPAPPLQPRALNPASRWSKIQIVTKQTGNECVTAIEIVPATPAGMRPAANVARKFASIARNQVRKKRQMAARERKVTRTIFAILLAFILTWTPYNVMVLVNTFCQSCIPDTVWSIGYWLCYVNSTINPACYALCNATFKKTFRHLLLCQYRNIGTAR

[23] = target: T5, Acetylcholine receptor subunit delta (Torpedo californica) (UniProt P02718); test: In vitro inhibition of Nicotinic acetylcholine receptor stimulation; NI=No inhibition
T5 sequence (whole entry): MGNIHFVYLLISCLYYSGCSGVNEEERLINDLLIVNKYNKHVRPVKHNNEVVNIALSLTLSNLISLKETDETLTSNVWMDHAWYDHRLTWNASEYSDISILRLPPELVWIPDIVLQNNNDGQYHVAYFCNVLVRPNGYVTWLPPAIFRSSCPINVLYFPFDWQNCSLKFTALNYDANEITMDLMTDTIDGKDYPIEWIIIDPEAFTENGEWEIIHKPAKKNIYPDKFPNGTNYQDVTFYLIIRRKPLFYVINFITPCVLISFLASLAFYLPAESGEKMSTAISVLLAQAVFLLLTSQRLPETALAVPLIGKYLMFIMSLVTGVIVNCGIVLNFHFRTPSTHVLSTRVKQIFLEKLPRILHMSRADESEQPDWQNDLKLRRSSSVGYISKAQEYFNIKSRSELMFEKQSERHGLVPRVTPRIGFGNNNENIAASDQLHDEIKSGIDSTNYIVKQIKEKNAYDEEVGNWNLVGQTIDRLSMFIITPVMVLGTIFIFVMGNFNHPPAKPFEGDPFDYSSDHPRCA

Mus musculus [24] = test: The percent of animals in the scopolamine-drug group with latencies greater than the cutoff time at subcutaneous dose of 0.04 mg/kg;; format: functional
Mus musculus [25] = test: The percent of animals in the scopolamine-drug group with latencies greater than the cutoff time at subcutaneous dose of 2.5 mg/kg; format: functional
Acetylcholinesterase [26] = target: T1, Acetylcholinesterase; test: Compound was evaluated in vitro in rats for the inhibition of brain (striatal) acetylcholinesterase (AChEI) using acetylthiocholine as substrate; 0.014-0.14
Cholinesterase [27] = target: T3, Cholinesterase; test: In vitro inhibition of human serum Butyrylcholinesterase using butyrylthiocholine as substrate; 0.01-0.069
[28] = target: T2, Acetylcholinesterase (Rattus norvegicus); test: Tested for percent ex vivo inhibition of rat striatal acetylcholinesterase at peroral dose of 20 mg/kg at 6 hr; format: organism-based; parameters: dose 20 mg/kg
Mus musculus [29] = test: Compound evaluated in vivo for reversing the Scopolamine dementia dark avoidance (SDDA) in mice expressed number of active dosages versus the total number of dosages evaluated; 4/9 and active; format: functional, organism-based
Mus musculus [30] = test: The percent of animals in the scopolamine-drug group with latencies greater than the cutoff time at subcutaneous dose of 1.25 mg/kg; format: functional
Mus musculus [31] = test: The percent of animals in the scopolamine-drug group with latencies greater than the cutoff time at subcutaneous dose of 5 mg/kg; format: functional
Mus musculus [32] = test: Compound evaluated in vivo for reversing the Scopolamine dementia dark avoidance (SDDA) in mice expressed number of active dosages versus the total number of dosages evaluated; 3/3 and active; format: functional, organism-based
Mus musculus [33] = test: The percent of animals in the scopolamine-drug group with latencies greater than the cutoff time at subcutaneous dose of 0.03 mg/kg; format: functional
[34] = target: T2, Acetylcholinesterase (Rattus norvegicus); test: Tested for percent ex vivo inhibition of rat striatal acetylcholinesterase at peroral dose of 10 mg/kg at 4 hr; format: organism-based; parameters: dose 10 mg/kg
[35] = target: T2, Acetylcholinesterase (Rattus norvegicus); test: Dose required to exhibit robust maximal effect for acetylcholinesterase (AChE) inhibition following intraperitoneal administration
[36] = target: T2, Acetylcholinesterase (Rattus norvegicus); test: Tested for percent ex vivo inhibition of rat striatal acetylcholinesterase at peroral dose of 10 mg/kg at 1 hr; format: organism-based; parameters: dose 10 mg/kg
[37] = target: T2, Acetylcholinesterase (Rattus norvegicus); test: Tested for percent ex vivo inhibition of rat striatal acetylcholinesterase at peroral dose of 10 mg/kg at 6 hr; format: organism-based; parameters: dose 10 mg/kg
Cholinesterase [38] = target: T3, Cholinesterase; test: In vitro inhibition of human serum Butyrylcholinesterase using butyrylthiocholine as substrate; 0.15-0.22
[39] = target: T2, Acetylcholinesterase (Rattus norvegicus); test: Tested for percent ex vivo inhibition of rat striatal acetylcholinesterase at peroral dose of 10 mg/kg at 24 hr; format: organism-based; parameters: dose 10 mg/kg
Mus musculus [40] = test: The percent of animals in the scopolamine-drug group with latencies greater than the cutoff time at subcutaneous dose of 0.3 mg/kg; format: functional
Acetylcholinesterase [41] = target: T1, Acetylcholinesterase; test: Compound was evaluated in vitro in rats for the inhibition of brain (striatal) acetylcholinesterase (AChEI) using acetylthiocholine as substrate; 0.084-0.19

CCCCCCCNC(=O)Oc1ccc2c(c1)[C@]1(C)CCN(C)[C@@H]1N2C [EPTASTIGMINE]
IC50 (Acetylcholinesterase [1]): 9 nM | Activity (Mus musculus [2]): Active | Response (Mus musculus [3]): 45% | ED50 [4]: 10.1 mg/kg | Response (Mus musculus [5]): 40% | IC50 (Cholinesterase [6]): 0.69 nM | Response (Mus musculus [7]): 20% | Response (Mus musculus [8]): 33% | Response (Mus musculus [9]): 53%

CCCCCCCNC(=O)Oc1ccc2c(c1)c(C)cn2N(CCC)c1ccncc1F
IC50 (Acetylcholinesterase [10]): 43000 nM

CCCN(c1ccncc1F)n1cc(C)c2cc(OC(=O)NC)ccc21
Response (Mus musculus [11]): 27% | inhibition [12]: 9% | IC50 (Acetylcholinesterase [13]): 58 nM | Activity (Mus musculus [14]): 1 | IC50 (Cholinesterase [15]): 31 nM | inhibition [16]: 41% | inhibition [17]: 50%

CCCCNC(=O)Oc1ccc2c(c1)c(C)cn2N(CCC)c1ccncc1F
IC50 (Acetylcholinesterase [18]): 4000 nM | inhibition [12]: 11% | Response (Mus musculus [19]): 33% | Activity (Mus musculus [20]): 2 | inhibition [16]: 26% | Response (Mus musculus [7]): 33% | IC50 (Cholinesterase [21]): 920 nM

CCCN(c1ccncc1)n1ccc2ccccc21
Activity [22]: inactive | Activity [23]: inactive

CCCN(c1ccncc1F)n1cc(C)c2cc(OC(=O)NCc3ccccc3)ccc21
inhibition [12]: 2% | Response (Mus musculus [24]): 20% | Response (Mus musculus [25]): 20% | IC50 (Acetylcholinesterase [26]): 43 nM | IC50 (Cholinesterase [27]): 27 nM | inhibition [28]: 6% | Activity (Mus musculus [29]): Active | Response (Mus musculus [30]): 20% | inhibition [16]: 12% | Response (Mus musculus [31]): 20% | inhibition [17]: 15%

CNC(=O)Oc1ccc2c(c1)c(C)cn2Nc1ccncc1F
Activity (Mus musculus [32]): Active | inhibition [12]: 20% | Response (Mus musculus [33]): 40% | inhibition [34]: 56% | ED50 [4]: 8.3 mg/kg | DOSE [35]: 0.625 mg/kg | inhibition [36]: 67% | inhibition [28]: 82% | inhibition [16]: 84% | inhibition [37]: 3% | inhibition [17]: 82% | IC50 (Cholinesterase [38]): 190 nM | Response (Mus musculus [8]): 21% | inhibition [39]: 0% | Response (Mus musculus [40]): 28% | IC50 (Acetylcholinesterase [41]): 130 nM
